Test systems include NCI-H460; K562; SF-295; SNB-75; RPMI-8226; SR; OVCAR-5; HT-29; A498; TK-10; COLO 205; A549; HCC 2998; EKVX; RXF 393; OVCAR-3; SF-539; NCI-H23; SK-MEL-28; HOP-92.
What all share (test): DTP human tumour cell line panel, 48 h

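1) Cells in 96-well plates. 2) Compound, 48 h, 5 concentrations. 3) Linear interpolation between surrounding doses. 4) Unreached endpoint = highest concentration. GI50 marks 50% less growth.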 Activity calls are given as the source filed them. Cut-off read from the data, not from the text of the source: active = GI50 up to about 1.1 µM and inactive = higher.

For `Cc1cc(N(CCC#N)CCC#N)ccc1C(/N=N/c1ccc(C(=O)O)cc1)=N\NC(=O)c1ccccc1`, the GI50 – broadly, the concentration giving 50% growth inhibition – in the assay with NCI-H460 is 22.9 µM (inactive); with K562, 12.7 µM (inactive); in the assay on SF-295, 23.9 µM (inactive); in the assay with SNB-75 it was 34.3 µM (inactive); in the assay on RPMI-8226 it was > 100 µM (inactive); in the assay on SR, 6.08 µM (inactive). The GI50 is > 100 µM (inactive) in the assay with OVCAR-5; 17.3 µM (inactive) with HT-29; 22.3 µM (inactive) in the assay with A498; > 100 µM (inactive) with TK-10; 28.5 µM (inactive) with COLO 205; 25.8 µM (inactive) with A549. The GI50 with HCC 2998 was 17.3 µM (inactive); with EKVX, > 100 µM (inactive); in the assay on RXF 393, 17.7 µM (inactive); in the assay on OVCAR-3, > 10 µM (inactive); in the assay with SF-539, 16.3 µM (inactive); in the assay on NCI-H23 it was 17.7 µM (inactive).

Turning to `O=C1CSc2ccncc2N1`, the GI50 in the assay on NCI-H460, with K562, in the assay with SF-295, in the assay with SNB-75, in the assay with SR and with OVCAR-5 was > 100 µM (inactive) each time. In addition, the GI50 in the assay with HT-29, in the assay on A498, in the assay on TK-10, in the assay with COLO 205, with A549 and in the assay with HCC 2998 was > 100 µM (inactive) throughout. Moreover, the GI50 in the assay with SK-MEL-28, in the assay with EKVX, in the assay with RXF 393, in the assay with OVCAR-3, in the assay with SF-539 and with NCI-H23 was > 100 µM (inactive) each time.

On to `CC(CO)(CO)N1C(=O)C2C3c4ccccc4C(c4ccccc43)C2C1=O` (stereo not given), for which the GI50 is > 100 µM (inactive) with NCI-H460; > 100 µM (inactive) with K562; > 100 µM (inactive) with SF-295; 25.4 µM (inactive) in the assay on SNB-75; > 100 µM (inactive) in the assay with SR; > 100 µM (inactive) with OVCAR-5. Further, the GI50 in the assay on HT-29 is > 100 µM (inactive); with A498, 64 µM (inactive); with TK-10, > 100 µM (inactive); in the assay on COLO 205, > 100 µM (inactive); in the assay on A549 it was > 100 µM (inactive); in the assay with HCC 2998 it was > 100 µM (inactive). Further, the GI50 with SK-MEL-28, in the assay on OVCAR-3, in the assay on SF-539 and with NCI-H23 was > 100 µM (inactive) in each case.

In the case of `C=C(C)CCN(C(=O)OC(C)(C)C)c1cc(C(C)C)co1`, the GI50 was 34.5 µM (inactive) in the assay with K562; 51.4 µM (inactive) with SF-295; 20.2 µM (inactive) in the assay with RPMI-8226; 33.5 µM (inactive) in the assay on SR; > 100 µM (inactive) in the assay with OVCAR-5; 45.3 µM (inactive) in the assay on HT-29. For the same compound, the GI50 in the assay with A498 was > 100 µM (inactive); in the assay on TK-10, > 100 µM (inactive); in the assay on COLO 205, 58.2 µM (inactive); with A549, 48.4 µM (inactive); with HCC 2998, 52 µM (inactive); with SK-MEL-28, > 100 µM (inactive). Moreover, the GI50 in the assay on EKVX is 45.1 µM (inactive); in the assay on OVCAR-3, 40.5 µM (inactive); in the assay on SF-539, > 100 µM (inactive); in the assay with HOP-92 it was 11.4 µM (inactive); in the assay with NCI-H23 it was 54 µM (inactive).

For `CC(C)(C)c1cc(C(O)(C(F)(F)F)C(F)(F)F)c2c(c1)C(C(F)(F)F)(C(F)(F)F)OC(C(C)(C)C)N2` (stereo not given), the GI50 in the assay on NCI-H460 is 3.27 µM (inactive); with K562 it was 2.39 µM (inactive); in the assay on SF-295, 2.63 µM (inactive); with SNB-75, 2.56 µM (inactive); with RPMI-8226, 1.95 µM (inactive); in the assay with SR, 2.24 µM (inactive). Besides, the GI50 with OVCAR-5 is 10.9 µM (inactive); with HT-29, 2.69 µM (inactive); in the assay with TK-10, 3.27 µM (inactive); in the assay on COLO 205, 3.3 µM (inactive); in the assay on A549 it was 3.28 µM (inactive); with HCC 2998, 3.88 µM (inactive). The GI50 in the assay with SK-MEL-28 was 5.16 µM (inactive); with EKVX, 4.22 µM (inactive); in the assay on RXF 393 it was 0.382 µM (active); in the assay on OVCAR-3 it was 2.58 µM (inactive); in the assay with SF-539, 2.55 µM (inactive); with HOP-92 it was < 0.01 µM (active). Further, the GI50 with NCI-H23 was 2.64 µM (inactive).

As to `O=C1Cc2c([nH]c3ccc(C(=O)O)cc23)-c2ccccc2N1`, the GI50 is > 100 µM (inactive) with NCI-H460; > 100 µM (inactive) in the assay with K562; > 100 µM (inactive) in the assay with SF-295; > 100 µM (inactive) in the assay on RPMI-8226; > 100 µM (inactive) in the assay with SR; 6.79 µM (inactive) in the assay on OVCAR-5. The GI50 in the assay on HT-29 was 84.9 µM (inactive); in the assay on A498 it was > 100 µM (inactive); in the assay on TK-10, > 100 µM (inactive); in the assay with COLO 205 it was > 100 µM (inactive); in the assay on A549, > 100 µM (inactive); with HCC 2998, > 100 µM (inactive). For the same compound, the GI50 in the assay with SK-MEL-28, in the assay with OVCAR-3, with SF-539, with HOP-92 and in the assay with NCI-H23 was > 100 µM (inactive) in each case.

On to `N#Cc1c(-c2ccc(Cl)cc2Cl)nc2[nH]nc(S)n2c1=O`, for which the GI50 in the assay on NCI-H460, in the assay on SF-295, in the assay on RPMI-8226, in the assay on SR, in the assay with OVCAR-5 and with HT-29 was > 100 µM (inactive) in each case. For the same compound, the GI50 in the assay with A498, in the assay with TK-10, with COLO 205, in the assay on A549, in the assay with HCC 2998 and in the assay on SK-MEL-28 was > 100 µM (inactive) throughout. Also, the GI50 in the assay with EKVX, in the assay with RXF 393, in the assay on HOP-92 and in the assay with NCI-H23 was > 100 µM (inactive) in each case.

Regarding `COC(=O)/C=C(\C(=O)OC)c1c2c3c(cc(OC)c(OC)c3c3ccccc13)CCN2C`, the GI50 with NCI-H460 is 35.9 µM (inactive); in the assay with K562, 26.2 µM (inactive); with SF-295, 78.9 µM (inactive); in the assay on SNB-75 it was 66.8 µM (inactive); with RPMI-8226 it was 26.8 µM (inactive); in the assay with SR, 26.1 µM (inactive). For the same compound, the GI50 in the assay with OVCAR-5 is > 100 µM (inactive); with HT-29, 38.5 µM (inactive); with TK-10, 48.4 µM (inactive); with COLO 205, 14.7 µM (inactive); in the assay with A549 it was 24.4 µM (inactive); with HCC 2998, 33.7 µM (inactive). For the same compound, the GI50 with SK-MEL-28 was 38.3 µM (inactive); with EKVX, 64.6 µM (inactive); in the assay on RXF 393, 8.79 µM (inactive); in the assay on OVCAR-3, 28.2 µM (inactive); in the assay on SF-539 it was 27.5 µM (inactive); in the assay with HOP-92, 44.9 µM (inactive). For the same compound, the GI50 in the assay on NCI-H23 was 42.2 µM (inactive).
